Laboratory results: patent publication US20100028259A1, “USE OF ORGANIC CATION TRANSPORTERS FOR CANCER DIAGNOSIS AND THERAPY” (The Regents of the University of California, priority 2006, published 2010)
Like-named read-outs stand apart in the source and are kept apart here.

Experiments:
MDCK-MOCK cells [1] = test: MTT drug sensitivity assay in MDCK-MOCK cells; format: cell-based, canine; details: read-out: IC50 MDCK-MOCK
Experimental: (§1) Cytotoxicity of the platinum-based compounds was measured by MTT (thiazolyl blue tetrazolium bromide) assay. Cells were seeded in 100 μl of the culture medium without any antibiotics in 96-well plates at a predetermined cell density. For HEK 293 cells, poly-D-lysine coated plates were used. After overnight incubation, the platinum-based compounds were then added to the culture medium to give the indicated final concentrations. For the OCT inhibitor studies, the inhibitors (i.e., disopyramide or cimetidine) were added to the medium at a specified concentration immediately before the addition of the platinum-based compounds. After incubation for a specified time period, the drug-containing medium was replaced with fresh, drug-free medium and the incubation was continued for a total of 72 hours (start from the addition of platinum-based compounds). Then, the MTT assay was performed similarly as described in Alley et al., Cancer Res., 48:589-601 (1988). […] The maximal cell growth was the cell growth in the medium without any platinum-based compounds; C is the concentration of the platinum-based compound, and γ is the slope factor.
(§2) Briefly, the cells were seeded in 96-well plates at a density of 5,000 cells/well for the transfected MDCK cells or 12,000 cells/well for the transfected HEK 293 cells. The platinum-based drugs were added on the following day. After the specified time periods of drug exposure, the drug-containing medium was replaced with fresh, drug-free medium, and the incubation was continued for a total of 72 hours (start from the time when the drug was added). After incubation, the cell growth was determined by an MTT assay. Data are expressed as mean±SD from 3 to 6 independent experiments with each performed in quadruplicate. The resistance factor (RF) was defined as the ratio of the mean IC50 value in the MOCK cells to that in the OCT-transfected cells.
(§3) Briefly, MDCK cells were seeded at a density of 5,000 cells/well in 96-well plates and exposed to the test compounds for 7 hours on the following day. After incubation for a total of 72 hours, the cell growth was determined by an MTT assay. The data for carboplatin was taken from Table 1 and was not determined simultaneously with the other compounds. The resistance factor (RF) was defined as the ratio of the mean IC50 value in MDCK-MOCK cells to that in MDCK-hOCT1 cells. Data are expressed as mean±SD from six measurements, and each measurement was performed in quadruplicate.

MDCK-hOCT1 cells [2] = test: MTT drug sensitivity assay in MDCK-hOCT1 cells; format: cell-based, canine; details: read-out: IC50 MDCK-hOCT1
Experimental: as §1, with “After overnight incubation, the platinum-based compounds were then added to the culture medium to give the indicated final concentrations.” left out
as §2, §3

HEK-MOCK cells [3] = test: MTT drug sensitivity assay in HEK-MOCK cells (control of HEK-hOCT2); format: cell-based, human; details: drug exposure 7 hour; Table 2; read-out: IC50 HEK-MOCK
Experimental: as §1, §2

HEK-hOCT2 cells [4] = test: MTT drug sensitivity assay in HEK-hOCT2 cells; format: cell-based, human; details: drug exposure 7 hour; read-out: IC50 HEK-hOCT2
Experimental: as §1, with “After overnight incubation, the platinum-based compounds were then added to the culture medium to give the indicated final concentrations.” left out
as §2

HEK-MOCK cells [5] = test: MTT drug sensitivity assay in HEK-MOCK cells (control of HEK-hOCT3); format: cell-based, human; details: drug exposure 7 hour; Table 3
Experimental: as §1, §2

HEK-hOCT3 cells = test: MTT drug sensitivity assay in HEK-hOCT3 cells; format: cell-based, human; details: drug exposure 7 hour
Experimental: as §1, with “After overnight incubation, the platinum-based compounds were then added to the culture medium to give the indicated final concentrations.” left out
as §2

HCT116 = test: MTT drug sensitivity, colon cancer cell line HCT116; format: cell-based, human
Experimental: as §1, with “After overnight incubation, the platinum-based compounds were then added to the culture medium to give the indicated final concentrations.” left out
(§4) The cell seeding density was 6,000-, 8,000-, 6,000-, 15,000-12,000- and 4,000 cells/well for HCT116, HT29, RKO, SW620, LS180, and DLD cells, respectively. When cimetidine (1.5 mM) was used, it was added to the wells immediately before the addition of the platinum-based drugs. The resistance factor (RF) was defined as the ratio of the mean IC50 value in the presence to that in the absence of cimetidine. Data are expressed as mean±SD from six measurements, and each measurement was performed in quadruplicate.

HT29 = test: MTT drug sensitivity, colon cancer cell line HT29; format: cell-based, human
Experimental: as §1, with “After overnight incubation, the platinum-based compounds were then added to the culture medium to give the indicated final concentrations.” left out
as §4

RKO = test: MTT drug sensitivity, colon cancer cell line RKO; format: cell-based, human
Experimental: as §1, with “After overnight incubation, the platinum-based compounds were then added to the culture medium to give the indicated final concentrations.” left out
as §4

SW620 = test: MTT drug sensitivity, colon cancer cell line SW620; format: cell-based, human
Experimental: as §1, with “After overnight incubation, the platinum-based compounds were then added to the culture medium to give the indicated final concentrations.” left out
as §4

LS180 = test: MTT drug sensitivity, colon cancer cell line LS180; format: cell-based, human
Experimental: as §1, with “After overnight incubation, the platinum-based compounds were then added to the culture medium to give the indicated final concentrations.” left out
as §4

DLD = test: MTT drug sensitivity, colon cancer cell line DLD; format: cell-based, human
Experimental: as §1, with “After overnight incubation, the platinum-based compounds were then added to the culture medium to give the indicated final concentrations.” left out
as §4

[6] = test system: six colon cancer cell lines; test: MTT drug sensitivity, summary over the six colon cancer cell lines; format: cell-based, human
Experimental: as §1, with “After overnight incubation, the platinum-based compounds were then added to the culture medium to give the indicated final concentrations.” left out
The resistance factor (RF) due to the presence of cimetidine was defined as the ratio of the IC50 value in the presence of cimetidine to that in the absence of cimetidine.
as §4

MDCK-hOCT1 cells [7] = test: Cellular accumulation of platinum in MDCK-hOCT1 cells (ICP-MS); format: in vitro ADME, canine; details: 2-hr exposure
Experimental: (§5) For the inhibitor studies, the incubation medium also contained disopyramide (150 μM). […] For the inhibitor studies, the incubation medium also contained cimetidine (1.5 mM). […] After drug exposure, the cells were washed with ice-cold PBS three times and harvested by scraping and centrifugation. The cell-associated platinum was determined by ICP-MS and normalized for protein content. Data are expressed as mean±SD from a single experiment performed in triplicate. Experiments were replicated for OCT1 and OCT2, and similar results were obtained.
(§6) The cellular accumulation of platinum was determined as described in Holzer et al., Mol. Pharmacol., 66:817-823 (2004) with some modifications. Briefly, the cells were grown in 100 mm×20 mm dishes in the culture medium without any antibiotics to over 90% confluence. For HEK 293 cells, poly-D-lysine coated dishes were used. For platinum accumulation, the cells were incubated in the culture medium containing the indicated concentrations of the platinum compounds at 37° C. in 5% CO2 for 2 hr unless specified. After incubation, the dishes were immediately placed on ice and the cells were washed with 6 ml of ice-cold PBS for three times and collected with a rubber policeman. The cell pellets were obtained by centrifugation at 400×g and at 4° C. for 15 min. For the OCT inhibitor studies, the incubation medium also contained the indicated inhibitor (i.e., disopyramide or cimetidine) in addition to the platinum-based compounds. The resulting cell pellets were then dissolved into 200 μl of 70% nitric acid at 65° C. for at least 2.5 hours, and then distilled water containing 10 ppb of iridium (Sigma) and 0.1% Triton X-100 was added to the samples to dilute nitric acid to 7%. The platinum content was measured by inductively plasma coupled mass spectrometry (ICP-MS) in the Analytical Facility at the University of California at Santa Cruz (Santa Cruz, Calif.). Cell lysates from a set of identical cultures were used for BCA protein assay.

MDCK-MOCK cells [8] = test: Cellular accumulation of platinum in MDCK-MOCK cells (ICP-MS); format: in vitro ADME, canine; details: 2-hr exposure, drug 15 μM
Experimental: as §5, §6

HEK-hOCT2 cells [9] = test: Cellular accumulation of platinum in HEK-hOCT2 cells (ICP-MS); format: in vitro ADME, human; details: 2-hr exposure
Experimental: as §5, §6

HEK-MOCK cells [10] = test: Cellular accumulation of platinum in HEK-MOCK cells (ICP-MS); format: in vitro ADME, human; details: cimetidine 1.5 mM
Experimental: as §5
The cellular accumulation of platinum was determined as described in Holzer et al., Mol. Pharmacol., 66:817-823 (2004) with some modifications. Briefly, the cells were grown in 100 mm×20 mm dishes in the culture medium without any antibiotics to over 90% confluence. For HEK 293 cells, poly-D-lysine coated dishes were used. For platinum accumulation, the cells were incubated in the culture medium containing the indicated concentrations of the platinum compounds at 37° C. in 5% CO2 for 2 hr unless specified. […] The platinum content was measured by inductively plasma coupled mass spectrometry (ICP-MS) in the Analytical Facility at the University of California at Santa Cruz (Santa Cruz, Calif.). […]

[11] = SAR study Table 4, 7 hours of drug exposure
[12] = drug exposure 7 hour, MTT at 72 hours, Table 1
[13] = absence of cimetidine, read-out: IC50 Control
[14] = cimetidine 1.5 mM, read-out: IC50 Cimetidine-treated

[Cl][Pt]1([Cl])[NH]C2CCCCC2[NH]1 [[Pt(S,S-DACH)Cl2]]
IC50 (MDCK-MOCK cells [1]; [11]): 16.2 ± 3.72 µM
IC50 (MDCK-hOCT1 cells [2]; [11]): 0.57 ± 0.18 µM

[Pt(NH3)2(trans-1,2-(OCO)2C6H10)] [[Pt(NH3)2(trans-1,2-(OCO)2C6H10]]
IC50 (MDCK-MOCK cells [1]; [11]): 21.4 ± 2.94 µM
IC50 (MDCK-hOCT1 cells [2]; [11]): 10.8 ± 2.66 µM

O=C1[O][Pt]2([NH]C3CCCCC3[NH]2)[O]C1=O [[Pt(S,S-DACH)oxalato]]
IC50 (MDCK-MOCK cells [1]; [11]): 30 ± 14.2 µM
IC50 (MDCK-hOCT1 cells [2]; [11]): 1.45 ± 1.16 µM

N.N.[Cl][Pt][Cl] [cisplatin]
IC50 (MDCK-MOCK cells [1]; [11]): 6.32 ± 0.74 µM
IC50 (MDCK-MOCK cells [1]; [12]): 19.6 ± 7.56 µM
IC50 (MDCK-hOCT1 cells [2]; [11]): 3.58 ± 0.3 µM
IC50 (MDCK-hOCT1 cells [2]; [12]): 15.4 ± 2.84 µM
IC50 (HEK-MOCK cells [3]): 2.95 ± 0.23 µM
IC50 (HEK-hOCT2 cells [4]): 1.32 ± 0.18 µM
IC50 (HEK-MOCK cells [5]): 2.83 ± 0.9 µM
IC50 (HEK-hOCT3 cells): 2.44 ± 0.71 µM
IC50 (HCT116; HCT116, absence of cimetidine, read-out: IC50 Control): 5.42 ± 1.34 µM
IC50 (HCT116; HCT116, cimetidine 1.5 mM, read-out: IC50 Cimetidine-treated): 10.2 ± 3.23 µM
IC50 (HT29; HT29, absence of cimetidine, read-out: IC50 Control): 12.4 ± 3.91 µM
IC50 (HT29; HT29, cimetidine 1.5 mM, read-out: IC50 Cimetidine-treated): 30.8 ± 11 µM
IC50 (RKO; [13]): 8.58 ± 2.38 µM
IC50 (RKO; [14]): 12.5 ± 4.44 µM
IC50 (SW620; SW620, absence of cimetidine, read-out: IC50 Control): 12.6 ± 1.95 µM
IC50 (SW620; SW620, cimetidine 1.5 mM, read-out: IC50 Cimetidine-treated): 22.2 ± 4.92 µM
IC50 (LS180; LS180, absence of cimetidine, read-out: IC50 Control): 5.72 ± 1.75 µM
IC50 (LS180; LS180, cimetidine 1.5 mM, read-out: IC50 Cimetidine-treated): 8.27 ± 3.35 µM
IC50 (DLD; [13]): 18.4 ± 7.58 µM
IC50 (DLD; [14]): 32.3 ± 10.3 µM
IC50 ([6]; absence of cimetidine, read-out: mean±SE of IC50 in the six cell lines, control): 10.5 ± 2.02 µM
IC50 ([6]; cimetidine 1.5 mM, read-out: mean±SE of IC50 in the six cell lines, in the presence of cimetidine): 19.4 ± 4.32 µM

NCCN.[Cl][Pt][Cl] [[Pt(Cl2)(en)]]
IC50 (MDCK-MOCK cells [1]; [11]): 33.2 ± 11.5 µM
IC50 (MDCK-hOCT1 cells [2]; [11]): 10.2 ± 4.76 µM

[Cl][Pt]1([Cl])[NH]C2CCCCC2[NH]1 [[Pt(R,R-DACH)Cl2]]
IC50 (MDCK-MOCK cells [1]; [11]): 15 ± 3.24 µM
IC50 (MDCK-hOCT1 cells [2]; [11]): 0.65 ± 0.26 µM

N.N.O=C([O-])C1(C(=O)[O-])CCC1.[Pt+2] [carboplatin]
IC50 (MDCK-MOCK cells [1]; [11]): 258 ± 86.3 µM
IC50 (MDCK-MOCK cells [1]; [12]): 258 ± 86.3 µM
IC50 (MDCK-hOCT1 cells [2]; [11]): 227 ± 85.8 µM
IC50 (MDCK-hOCT1 cells [2]; [12]): 227 ± 85.8 µM
IC50 (HEK-MOCK cells [3]): 110 ± 46.3 µM
IC50 (HEK-hOCT2 cells [4]): 61.6 ± 46.3 µM
IC50 (HEK-MOCK cells [5]): 84.8 ± 9.71 µM
IC50 (HEK-hOCT3 cells): 48.1 ± 23.4 µM
cellular platinum accumulation rate in MDCK-hOCT1 (MDCK-hOCT1 cells [7]; drug 15 μM): 2.77±0.36 pmol/mg protein-hr
effect of disopyramide on platinum accumulation rate in MDCK-hOCT1 (MDCK-hOCT1 cells [7]; disopyramide 150 μM): not inhibited by disopyramide
cellular platinum accumulation rate in MDCK-MOCK (MDCK-MOCK cells [8]): 2.22±0.07 pmol/mg protein-hr
fold higher platinum accumulation rate, HEK-hOCT2 vs HEK-MOCK (HEK-hOCT2 cells [9]): 1.38 fold
cellular platinum accumulation rate in HEK-hOCT2 (HEK-hOCT2 cells [9]; drug 10 μM): 4.17±0.18 pmol/mg protein-hr
effect of cimetidine on platinum accumulation / cellular uptake in HEK-MOCK (HEK-MOCK cells [10]): little effect

N.NC1CCCCC1.[Cl][Pt][Cl] [cis-[Pt(NH3)(Cy)Cl2]]
IC50 (MDCK-MOCK cells [1]; [11]): 1.42 ± 0.15 µM
IC50 (MDCK-hOCT1 cells [2]; [11]): 0.16 ± 0.03 µM
